Data from patent US20250057958A1, “CYTOTOXICITY TARGETING CHIMERAS FOR CCR2-EXPRESSING CELLS” (GLAXOSMITHKLINE INTELLECTUAL PROPERTY DEVELOPMENT LIMITED, priority 2022, published 2025).

Tests used:
[1] = biological target: human alpha1 nicotinic acetylcholine (nACh) receptor (Homo sapiens, UniProt P02708+Q07001); assay: Nicotinic acetylcholine receptor antagonism assay (IONFlux automated patch clamp); assay type: cell-based; details: for Emax at 33.3 µM: maximum percentage antagonism at highest concentration tested, read-out: Maximum Response (%); for IC50: nAChR antagonism, stimulated with ACh, average if more than one run
Sequence of human alpha1 nicotinic acetylcholine (nACh) receptor (P02708 21-457): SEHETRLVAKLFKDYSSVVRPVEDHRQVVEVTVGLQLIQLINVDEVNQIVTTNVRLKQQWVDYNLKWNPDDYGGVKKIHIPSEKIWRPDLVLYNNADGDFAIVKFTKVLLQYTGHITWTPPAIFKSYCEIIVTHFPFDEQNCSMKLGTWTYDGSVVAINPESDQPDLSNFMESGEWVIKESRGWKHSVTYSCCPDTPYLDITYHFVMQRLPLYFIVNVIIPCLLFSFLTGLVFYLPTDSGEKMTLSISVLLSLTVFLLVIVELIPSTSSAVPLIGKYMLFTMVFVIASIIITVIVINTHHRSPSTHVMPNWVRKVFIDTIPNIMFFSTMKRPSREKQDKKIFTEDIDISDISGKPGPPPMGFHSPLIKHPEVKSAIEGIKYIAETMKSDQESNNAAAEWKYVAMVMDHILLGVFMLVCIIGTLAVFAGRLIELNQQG
Sequence of human alpha1 nicotinic acetylcholine (nACh) receptor (P11230 24-501 partner): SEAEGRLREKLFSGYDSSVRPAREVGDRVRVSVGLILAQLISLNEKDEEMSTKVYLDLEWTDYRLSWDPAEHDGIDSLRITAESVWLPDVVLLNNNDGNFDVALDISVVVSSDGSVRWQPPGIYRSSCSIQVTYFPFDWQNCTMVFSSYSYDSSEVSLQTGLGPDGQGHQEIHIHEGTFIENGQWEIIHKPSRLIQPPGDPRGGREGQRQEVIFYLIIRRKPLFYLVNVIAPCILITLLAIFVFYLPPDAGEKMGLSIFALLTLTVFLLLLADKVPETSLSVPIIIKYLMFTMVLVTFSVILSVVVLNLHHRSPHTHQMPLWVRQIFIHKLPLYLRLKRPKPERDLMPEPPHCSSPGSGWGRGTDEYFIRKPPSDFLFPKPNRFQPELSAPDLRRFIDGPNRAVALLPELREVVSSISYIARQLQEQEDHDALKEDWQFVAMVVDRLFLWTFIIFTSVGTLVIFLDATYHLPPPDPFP
Sequence of human alpha1 nicotinic acetylcholine (nACh) receptor (Q07001 22-517): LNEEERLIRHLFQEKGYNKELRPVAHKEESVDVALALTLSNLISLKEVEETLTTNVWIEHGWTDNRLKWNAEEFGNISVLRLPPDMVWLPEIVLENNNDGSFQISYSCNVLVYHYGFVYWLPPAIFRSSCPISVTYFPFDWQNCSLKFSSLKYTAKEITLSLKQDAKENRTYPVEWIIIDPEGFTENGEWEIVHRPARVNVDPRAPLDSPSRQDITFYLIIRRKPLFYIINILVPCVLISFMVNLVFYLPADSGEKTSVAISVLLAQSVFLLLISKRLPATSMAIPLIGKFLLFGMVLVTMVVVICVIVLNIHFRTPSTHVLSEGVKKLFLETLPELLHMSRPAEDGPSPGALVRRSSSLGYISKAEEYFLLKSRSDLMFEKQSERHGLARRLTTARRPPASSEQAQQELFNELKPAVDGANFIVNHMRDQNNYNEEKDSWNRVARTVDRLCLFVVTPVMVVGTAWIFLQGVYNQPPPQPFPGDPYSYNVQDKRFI
Source text: Cells expressing human alpha1 nicotinic acetylcholine (nACh) receptor (nAChR) were washed and dissociated using Trypsin containing buffer. Cells were then washed and seeded at a density of 3-5 million cells/mL and allowed to grow for 3 days. […] The receptor was then stimulated via addition of acetylcholine (ACh) and activation of the receptor was monitored via the IONFlux automated patch clamp system. IonFlux Data Analyzer software was utilized to perform leak subtraction and measure (min) peak current amplitude.
Data processing: (1) Current values recorded for vehicle only applications in individual traps/patterns were subtracted from corresponding current amplitude values for control, test article and control+test article. (2) Control response was calculated as % of the average response of the 3rd out of total 3 ACh (10 mM) applications alone. In rare situations, if the 3rd ACh response was obscured due to technical artifacts, the 2nd and/or 1st ACh (10 mM) application was considered as control. The peak current amplitude generated in the presence of each test article concentration was then used to calculate the % inhibition as compared to control response (10 mM ACh alone). These estimates were further corrected for vehicle response and run down corrected by normalizing with time matched control responses (10 mM ACh alone). The corrected percentages were then fit with a non-linear function in GraphPad Prism 6 (or later versions) to determine the IC50.
Exclusion criteria: (i) any n's with poor recording quality, (ii) control current amplitude <500 pA or (iii) significant outliers, as determined by the Grubbs' test.
ARMs compounds of Formula (I) of the invention were tested for antagonism of the nAChR in the above assay in […] experimental runs and the results are shown in Table 5 below. Antagonistic activity of the compounds of Formula (I) of the invention is reported as an IC50 value (half maximal inhibitory concentration) and the maximum percentage antagonism observed at the highest concentration of compound of Formula (I) tested, as indicated in Table 5. For compounds tested in more than one experimental run, the IC50 value is reported as an average.

[2] = Blood drug concentration analysis (PK) in the in vivo depletion assay; parameters: species or system human CCR2 (hCCR2) knock-in mice; details: human CCR2 (hCCR2) knock-in, C57 background, mouse, whole blood, LC-MS/MS, IV bolus 0.1 mpk compound + 10 mpk anti-cotinine antibody, 48 hours post-dose, read-out: Exposure of Compound of Formula (I) 48 hours post-dose
Protocol: Human CCR2 (hCCR2) knock-in mice (C57 background) were dosed intravenously with a PBS solution containing a compound of Formula (I) to measure depletion of CCR2 expressing cells in peripheral blood. Peripheral blood from IV dosed mice was also analyzed to determine PK properties of the compounds of Formula (I).
Administration to Animal: Solution formulation of antibody and compound of Formula (I) was injected (bolus injection) to the restrained mouse in the right/left lateral tail vein. Animals were dosed with 0.1 milligram per kilogram (mpk) of the compound of Formula (I) and 10 mpk of the anti-cotinine antibody.
Collection of Blood for PK: Blood was collected at time points 0.25 hour, 2 hours, and […] following administration (50 μL/time point) through retro-orbital bleeding under mild isoflurane anesthesia.
Terminal bleeding at end of experiment (48 hr): Approximately 250 μL of blood in K2EDTA tube and approximately 250 μL of blood in SST (serum separation tube) was collected from each mouse through retro-orbital bleeding under deep isoflurane anesthesia. After bleeding, each mouse was sacrificed by cervical dislocation. The blood distribution at termination was determined as follows: • For PK: 50 μL of K2EDTA blood was transferred to another tube for PK • Flow cytometry: Remaining blood (˜200 μL) was used for flow cytometry analysis. • For serum collection: serum separator tubes (BD) were centrifuged at 4° C., 5000 rpm for 15 minutes. Approximately 100 μL serum was separated and stored at −80° C. for further usage. • Blood drug concentration: Samples collected at the various timepoints (0.25 hr, 2 hr, 24 and 48 hr) were analyzed to determine blood drug concentration.
Blood drug concentration analysis: Drug concentration in blood samples was determined by an LC-MS/MS-based bioanalytical method developed at Syngene. Samples were analyzed on Q-Trap, API-5500 LC-MS/MS system coupled with Exion UHPLC system from SCIEX, USA operated in multiple reaction monitoring mode employing electrospray ionization technique in positive polarity. Analyte and internal standard peaks were resolved on Synergi Polar, 75×2.0 mm, 4 μcolumn using mobile phase 10 mM Ammonium acetate in Milli-Q water as phase A and 0.1% Formic acid in acetonitrile as Phase B. Gradient elution was performed with initial composition 95% Phase A at 0.0 min, holding it for 0.2 minutes, ramping to 5% by 1.0 minute, keeping the same for next 0.5 minutes and coming back to 95% by 1.6 minutes. The total run time was 2 minutes.
Working dilutions for calibration curve and quality control standards were prepared by serially diluting 20 mg/mL stock solution with DMSO. Spiked concentrations for calibration curve in the whole blood ranged from 1 ng/mL to 1000 ng/mL. […]

CC(=O)N[C@@H]1C[C@H](NC(C)(C)C)CC[C@@H]1N1CC[C@H](Nc2nc(CCCCNC(=O)[C@H]3CC[C@H](NC(=O)CCCO[C@H]4CC[C@H](OCCNC(=O)[C@H]5CC(=O)N(C)[C@@H]5c5cccnc5)CC4)CC3)nc3ccc(C(F)(F)F)cc23)C1=O [Example 3, (2S,3S)-N-(2-(((1R,4S)-4-(4-(((1S,4R)-4-((4-(4-(((S)-1-((1S,2R,4R)-2-Acetamido-4-(tert-butylamino)cyclohexyl)-2-oxopyrrolidin-3-yl)amino)-6-(trifluoromethyl)quinazolin-2-yl)butyl)carbamoyl)cyclohexyl)amino)-4-oxobutoxy)cyclohexyl)oxy)ethyl)-1-methyl-5-oxo-2-(pyridin-3-yl)pyrrolidine-3-carboxamide]
Emax at 33.3 µM [1]: 38% | IC50 [1]: > 33.3 µM | concentration at 48 h [2]: 37.1 ng/mL

CC(=O)N[C@@H]1C[C@H](NC(C)(C)C)CC[C@@H]1N1CC[C@H](Nc2nc([C@H]3CC[C@@H](NC(=O)[C@H]4CC[C@H](NC(=O)CCCO[C@H]5CC[C@H](OCCNC(=O)[C@H]6CC(=O)N(C)[C@@H]6c6cccnc6)CC5)CC4)CC3)nc3ccc(C(F)(F)F)cc23)C1=O [Example 10, (2S,3S)-N-(2-(((1R,4S)-4-(4-(((1R,4R)-4-(((1R,4S)-4-(4-(((S)-1-((1S,2R,4R)-2-Acetamido-4-(tert-butylamino)cyclohexyl)-2-oxopyrrolidin-3-yl)amino)-6-(trifluoromethyl)quinazolin-2-yl)cyclohexyl)carbamoyl)cyclohexyl)amino)-4-oxobutoxy)cyclohexyl)oxy)ethyl)-1-methyl-5-oxo-2-(pyridin-3-yl)pyrrolidine-3-carboxamide]
Emax at 33.3 µM [1]: 28% | IC50 [1]: > 33.3 µM | concentration at 48 h [2]: 35.5 ng/mL

CC(=O)N[C@@H]1C[C@H](NC(C)(C)C)CC[C@@H]1N1CC[C@H](Nc2nc([C@H]3CC[C@H](NC(=O)[C@H]4CC[C@H](NC(=O)CCCO[C@H]5CC[C@H](OCCNC(=O)[C@H]6CC(=O)N(C)[C@@H]6c6cccnc6)CC5)CC4)CC3)nc3ccc(C(F)(F)F)cc23)C1=O [Example 11, (2S,3S)-N-(2-(((1R,4S)-4-(4-(((1S,4R)-4-(((1S,4R)-4-(4-(((S)-1-((1S,2R,4R)-2-Acetamido-4-(tert-butylamino)cyclohexyl)-2-oxopyrrolidin-3-yl)amino)-6-(trifluoromethyl)quinazolin-2-yl)cyclohexyl)carbamoyl)cyclohexyl)amino)-4-oxobutoxy)cyclohexyl)oxy)ethyl)-1-methyl-5-oxo-2-(pyridin-3-yl)pyrrolidine-3-carboxamide]
Emax at 33.3 µM [1]: 47% | IC50 [1]: > 33.3 µM | concentration at 48 h [2]: 93.4 ng/mL
